Laboratory results from publication PMC5531531, “A synthetic cationic antimicrobial peptide inhibits inflammatory response and the NLRP3 inflammasome by neutralizing LPS and ATP” (PLoS ONE, 2017).
No end group written: not given here.

Test system: LPS-induced NO generation in RAW264.7 cells
Experiment: NO inhibitory assay (Griess reaction), LPS-activated RAW 264.7
Type: cell-based, mouse
Settings: E. coli LPS 0.1 μg/ml, 24 h, Griess reaction; mean of triplicate wells from at least three experiments
Procedure: RAW 264.7 cells (2 × 10^5 in 0.5 ml of medium) were seeded in 24-well plates and then incubated with or without LPS (0.1 μg/ml) in the absence or presence of AMP for 24 h. The effects of AMP on NO production were measured indirectly by analyzing nitrite levels using the Griess reaction as described in detail previously.

Sequence	ED50, effective dose of AMPs that inhibits 50% of LPS-induced NO generation in RAW264.7 cells [µM]
GYNYAKKLANLAKKFANALW [GW-H1]	>8
GAKALTKAATAFTKFYKTIW [GW-A4]	4
GIGKFLHSAKKWGKAFVGEIMNS [Peptide M2a, Magainin 2a, reference compound]	>8
GANAAKKFATIAKKFINYLW [GW-Q4]	>8
GAKYAKYIYNFYKYIAKYIW [GW-A1]	>8
GATYAKKIIKTITKIATTAW [GW-A5]	>8
GANLAKKFYTYINKFINYAW [GW-Q3]	7
GYKYYNKIYNYLNKYLKYAW [GW-H0]	5
GANAAKKLATFAKKIFTAYW [GW-M1]	4
GLTFLKKILNFAKKIYTAIW [GW-H3]	4
GWGSFFKKAAHVGKHVGKAALTHYL [Ple, Pleurocidin, reference compound]	>8
GIKIAKKAITIAKKIAKIYW [GW-Q6]	4
